Data on eleven compounds can be found in patent publication US5348965A, “N-substituted azaheterocyclic carboxylic acids” (Novo Nordisk A/S, priority 1991, dated 1994).

Where a name gives a salt, the structure may show the parent alone.

The first assay deals with GABA uptake.
Assay: not given
The following applies: from the synaptic cleft into presynaptic nerve terminals and glial cells; cited from earlier work.
In the case of `O=C(O)C1CCCNC1` (centres unmarked) [3-piperidinecarboxylic acid], the “inhibition of GABA uptake” value is given as “potent inhibitor of GABA uptake”.

The next assay has as its system [^3 H]-GABA uptake. As to the kind of experiment: in vitro inhibition of [^3 H]-GABA uptake (method of Fjalland). The assay is classed as biochemical. The following applies: Male wistar rat cortical tissue homogenate; tris HCl buffer pH 7.5; 60 minutes at 30° C. The method, then:
Values for in vitro inhibition of [^3 H]-GABA uptake for the invention compounds were assessed essentially by the method of Fjalland (Acta Pharmacol. Toxicol. 1978, 42, 73-76). Male wistar rat cortical tissue was gently homogenized by hand using a glass/PTFE homogenizer in 10 volumes of 0.32 M sucrose. Incubation was performed in a 40 mM tris HCl buffer (pH 7.5 at 30° C.) containing […], 4 mM MgSO4, […] and 10 mM glucose, for 60 minutes at 30° C. Values for inhibition of GABA uptake for some representative compounds are recorded in Table I.
A word on the IC50: it is the concentration needed to halve the response being measured. Higher therefore signals weaker potency in that assay. In turn, `O=C(O)[C@@H]1CCCN(CCON=C2c3ccccc3CCc3ccccc32)C1` [Example 7, (R)-N-(2-(((10,11-Dihydro-5H-dibenzo[a,d]cyclohepten-5-ylidene)amino)oxy)ethyl)-3-piperidinecarboxylic acid hydrochloride] showed a half-maximal inhibitory concentration (IC50) of 1130 nM.

For the compound `O=C(O)[C@@H]1CCCN(CCOCCN2c3ccccc3CCc3ccccc32)C1` [Example 1, (R)-N-(2-(2-(10,11-Dihydro-5H-dibenz[b,f]azepin-5-yl)ethoxy)ethyl)-3-piperidinecarboxylic acid hydrochloride], it took 222 nM to reach half-maximal inhibition (IC50).

As to `O=C(O)[C@@H]1CCCN(CCCOCC=C2c3ccccc3CCc3ccccc32)C1` [Example 5, (R)-N-(3-(2-(10,11-Dihydro-5H-dibenzo[a,d]cyclohepten-5-ylidene)ethoxy)-1-propyl)-3-piperidinecarboxylic acid hydrochloride], the half-inhibitory concentration (IC50) amounted to 900 nM.

In the case of `O=C(O)[C@@H]1CCCN(CCOCCN2c3ccccc3Sc3ccccc32)C1` [Example 2a, (R)-N-(2-(2-(10H-Phenothiazin-10-yl)ethoxy)ethyl)-3-piperidinecarboxylic acid hydrochloride], the IC50 is 306 nM.

As for `O=C(O)[C@@H]1CCCN(CCOCCN2c3ccccc3Sc3ccc(Cl)cc32)C1` [Example 2c, (R)-N-(2-(2-(2-Chloro-10H-phenothiazin-10-yl)ethoxy)ethyl)-3-piperidinecarboxylic acid hydrochloride], the IC50 was 119 nM.

In turn, `O=C(O)[C@@H]1CCCN(CCOCC=C2c3ccccc3CCc3ccccc32)C1` [Example 3, (R)-N-(2-(2-(10,11-Dihydro-5H-dibenzo[a,d]cyclohepten-5-ylidene)ethoxy)ethyl)-3-piperidinecarboxylic acid hydrochloride] showed a half-maximal inhibitory concentration (IC50) of 754 nM.

A further assay deals with GABA uptake.
Assay: not given
The following applies: oral; Yunger et al., J. Pharm. Exp. Ther. 1984, 228, 109; cited from earlier work.
Turning to `O=C(O)C1CCCN(CCC=C(c2ccccc2)c2ccccc2)C1` (centres unmarked) [SK&F 89976A, N-(4,4-diphenyl-3-buten-1-yl)nipecotic acid], the “orally active inhibition of GABA uptake” value is on record as “orally active inhibitors of GABA uptake”.

Regarding `O=C(O)C1=CCCN(CCC=C(c2ccccc2)c2ccccc2)C1` [SK&F 100330A, N-(4,4-diphenyl-3-buten-1-yl)guvacine], the “orally active inhibition of GABA uptake” value was “orally active inhibitors of GABA uptake”.

On to `O=C(O)CC1CCN(CCC=C(c2ccccc2)c2ccccc2)C1` (stereo not drawn) [SK&F 100561, N-(4,4-diphenyl-3-buten-1-yl)-homo-β-proline], for which the “orally active inhibition of GABA uptake” value was “orally active inhibitors of GABA uptake”.

`O=C(O)C1CCCN(CCC=C(c2ccccc2)c2cccs2)C1` (centres unmarked) [SK&F 100604J, N-(4-phenyl-4-(2-thienyl)-3-buten-1-yl)nipecotic acid]: the “orally active inhibition of GABA uptake” value is on record as “orally active inhibitors of GABA uptake”.
